Experimental findings from patent US4970225A, “Imidazolidine carboxylic acids and esters as blood platelet aggregation inhibitors” (Bristol-Myers Squibb Company, priority 1990, dated 1990) are described below.

The subject of the experiment is ADP-induced aggregation of human platelets. Type of experiment: cell-based. As to conditions: Table 1; human platelet rich plasma; ADP 0.5 mcg/mL; read-out: Inhibition of Human Platelet Aggregation IC50 vs. ADP.

Each structure is given as a SMILES string. In brackets after ≈: the same amount, converted by molar mass.

Protocol: The aggregometer method of Born, C. […] Clin. Med. 1964, 64, 548-599 was used to assess the in vitro activity of the various compounds as to the inhibition of adenosine diphosphate (ADP) and collagen-induced platelet aggregation. The human volunteer donor's arm is cleansed with 70% ethyl alcohol. A sterile 20 ml syringe and needle are used to withdraw 20 ml of blood. The blood is immediately added to a test tube containing 3.8% sodium citrate to prevent clotting (1 part citrate to 9 parts blood).
Platelet rich plasma (PRP) was separated by centrifugation for 10 minutes at 1000 rpm (140 xg) from citrated (3.8%) human blood. All glassware used for preparation of PRP is silicon treated. ADP in final concentration of 0.5 mcg/mL or 0.05 mL of a collagen suspension prepared according to the method described by Evans, G., et al., J. Exp. Med., 1968, 128, 877-894 was used to induce aggregation. The various compounds tested were dissolved in dimethylsulfoxide (DMSO) so that 5 mcl added to the platelet rich plasma would yield the desired test concentration. Vehicle control trials were done and compared with aggregation induced in platelet rich plasma containing various concentrations of the test compounds. Dose response curves were obtained and Inhibitor Concentration (IC50) values calculated.

Regarding `COC(=O)CCCCCCCCN1C(=O)C(c2ccccc2)N(c2ccccc2)C1=O` (centres unmarked) [Example 1, methyl 2,5-dioxo-3,4-diphenyl-1-imidazolidinenonanoate], the IC50 turned out to be 32 µg/mL (≈ 75.7 µM).

Regarding `O=C(O)CCCCCCCCN1C(=O)C(c2ccccc2)N(c2ccccc2)C1=O` (centres unmarked) [Example 2, 2,5-dioxo-3,4-diphenyl-1-imidazolidinenonanoic acid], the IC50 is 11.9 µg/mL (≈ 29.1 µM).
